How the values were obtained:
[1] = Antiinflammatory activity in human neutrophils assessed as FMLP/cytochalasin B-induced superoxide anion generation after 5 mins by spectrophotometry; format: functional, cell-based; settings: Neutrophil
[2] = Antiinflammatory activity in human neutrophils assessed as FMLP/cytochalasin B-induced elastase release after 5 mins by spectrophotometry; format: functional, cell-based; settings: Neutrophil
[3] = Cytotoxicity against human Huh7.5 cells; format: cell-based; settings: Huh-7
Hepatitis C virus = test: Antiviral activity against HCV infected in human Huh7.5 cells; format: functional, organism-based, Hepacivirus hominis; settings: Huh-7

| SMILES | IC50 [1] | IC50 [2] | IC50 [3] | EC50 (Hepatitis C virus) |
| --- | --- | --- | --- | --- |
| Cc1cc2ccc3c(c2cc1O)CCC(=O)C3(C)C | 4.4 µM | 4.3 µM | 26.9 µM | 13 µM |
| COc1cc2c3c(ccc2cc1C)C(C)(C)C(O)CC3 (racemic) | > 30 µM | 9.6 µM | 64.8 µM | 23.6 µM |
| C=CCc1ccc(O)c(-c2ccc(O)c(CC=C)c2)c1 [HONOKIOL] | – | – | 58.5 µM | 9.4 µM |
| CNC(=O)c1cc(Oc2ccc(NC(=O)Nc3ccc(Cl)c(C(F)(F)F)c3)cc2)ccn1 [SORAFENIB] | 3.2 µM | 2 µM | – | – |
